Data as given in patent US5296494A, “Pyrrolidine compounds having thromboxane A2 receptor antagonistic activity and thromboxane A2 synthase inhibiting activity” (Adir et Compagnie, priority 1991, dated 1994).
Structures can show the parent of a compound that is named as a salt.

Experiments:
guinea pig trachea = biological target: T1, guinea pig trachea (Cavia porcellus, UniProt A0A286Y4I8); assay: Determination of the pA2 values on guinea pig trachea (U46619-induced contraction); type: cell-based; conditions: isolated guinea pig trachea rings, 37° C., agonist U46619, antagonist contact 20 minutes
T1 construct: the trachea is rapidly removed and then cut into two-cartilage rings; from tissue; host or cells: guinea pig trachea, two-cartilage rings (isolated organ)
T1 sequence (A0A286Y4I8 1-347): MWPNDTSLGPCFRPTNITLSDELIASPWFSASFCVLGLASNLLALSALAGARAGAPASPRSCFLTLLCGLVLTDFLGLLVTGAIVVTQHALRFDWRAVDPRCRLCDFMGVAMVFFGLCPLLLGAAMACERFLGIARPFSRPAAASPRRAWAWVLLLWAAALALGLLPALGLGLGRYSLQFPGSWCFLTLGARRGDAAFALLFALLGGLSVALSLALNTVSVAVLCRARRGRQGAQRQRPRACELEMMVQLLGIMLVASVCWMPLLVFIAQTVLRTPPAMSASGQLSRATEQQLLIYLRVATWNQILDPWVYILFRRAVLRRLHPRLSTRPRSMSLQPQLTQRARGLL
Description: Determination of the pA2 values on guinea pig trachea
Male albino guinea pigs weighing 400-500 grams were sacrificed by a blow to the back of the neck and by cervical elongation. The throat is opened and the trachea is rapidly removed and then cut into two-cartilage rings. These rings are mounted between two hooks in cells thermostated at 37° C. containing physiological fluid (composition in mM:NaCl 118; NaHCO3 25; glucose 10; KCl 4.7; CaCl2 1.25; MgSO4 1.19; KH2 PO4 1.14).
A 95% O2 /5% CO2 mixture is bubbled through the physiological solution. The lower hook constitutes the fixed point while the upper hook is connected to an isometric strength gage. The tissues are placed under a baseline tension of 3.5 grams. The test pharmacological substances are prepared immediately before use. The drugs are solubilized in water or in dimethyl sulfoxide.
After mounting, the preparations are left standing for 90 minutes, rinses being performed every 30 minutes. After readjustment of the baseline tension, a contraction produced by a single dose of agonist (U46619; 10^-5 M) is produced in order to make the following contractions consist. After washing and return to the baseline, a first effect/concentration curve is established by adding cumulative doses of U46619 (10^-9 M to 10^-5 M, with semi-log spacing between the doses). This first experiment enables the "control" 50% effective concentration (EC50) to be calculated.
This EC50 is routinely calculated in the following manner: the tension values are first converted to percentages relative to the maximum effect, these percentages then being plotted on a graph with the percentages as ordinates and the log (concentration) values as abscissae. A linear regression is then carried out on the points lying between 10% and 90% (which corresponds to the linear portion of the sigmoid curve). The concentration corresponding to half the maximum effect (50%) may be readily calculated using the parameters of the linear plot.
After washing and return to the baseline, the organ is brought into contact with the antagonist ([…]) for 20 minutes. A second effect/concentration curve is then established in the presence of the antagonist, and the "treated" EC50 can then be calculated. All the elements enabling the pA2 (competitive antagonism) or pD2 (non-competitive antagonism) to be calculated are thereby obtained.
The pA2 (which represents the negative logarithm of the antagonist concentration in the presence of which twice as much agonist is required in order to obtain the same effect) is determined by plotting on a graph the values of log ((L/1)-1) with respect to log (antagonist concentration), where L=effect in presence of antagonist and 1=control effect.

thromboxane synthase = biological target: T2, thromboxane synthase (Oryctolagus cuniculus, UniProt G1TAZ9); assay: Anti-thromboxane synthase activity (TXB2 levels in serum of rabbit blood, radio immunoassay); type: cell-based; conditions: 37° C., one hour, serum TXB2 by radio immunoassay, read-out: IC50, inhibition of TXB2 level
T2 construct: from tissue; host or cells: rabbit whole blood (clotting; by own knowledge the enzyme is chiefly that of platelets)
T2 sequence (G1TAZ9 1-530): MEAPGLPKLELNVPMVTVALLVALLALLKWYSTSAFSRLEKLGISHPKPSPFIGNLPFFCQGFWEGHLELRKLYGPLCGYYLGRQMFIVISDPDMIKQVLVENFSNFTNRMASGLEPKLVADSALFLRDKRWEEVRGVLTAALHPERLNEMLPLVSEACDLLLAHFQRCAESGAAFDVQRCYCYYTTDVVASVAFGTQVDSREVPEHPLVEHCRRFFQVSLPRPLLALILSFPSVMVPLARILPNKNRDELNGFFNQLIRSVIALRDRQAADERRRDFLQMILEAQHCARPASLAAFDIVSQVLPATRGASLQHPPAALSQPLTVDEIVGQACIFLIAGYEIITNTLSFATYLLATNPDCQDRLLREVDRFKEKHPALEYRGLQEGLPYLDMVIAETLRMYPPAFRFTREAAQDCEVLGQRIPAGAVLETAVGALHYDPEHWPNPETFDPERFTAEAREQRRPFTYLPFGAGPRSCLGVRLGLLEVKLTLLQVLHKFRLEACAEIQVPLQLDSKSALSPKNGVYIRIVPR
Description: Anti-thromboxane synthase activity
Albino New Zealand rabbits weighing approximately 2 kg are used. These rabbits are anesthetized with pentobarbital (30 mg/kg i.v.). Blood is collected via carotid catheter in dry glass tubes, in the proportion of 1 ml per tube, in the presence or absence of different concentrations of inhibitor. The inhibitors are diluted in physiological fluid in order to avoid possible hemolysis.
The tubes are placed in a water bath at 37° C. for one hour. After coagulation, the tubes are cooled to 4° C. and centrifuged at 2000 g for 20 minutes in order to separate the serum from the clot. The serum may be frozen at -20° C. for 2 weeks for a subsequent assay.
The levels of TXB2, the stable metabolite of TXA2, in the serum are determined by radio immunoassay.
The levels obtained in the presence of the different doses of inhibitor are converted to a percentage inhibition relative to the baseline level of TXB2, in order to calculate the IC50 of the inhibitor. The latter is obtained by non-linear regression using the following equation (Michaelis L, Menten ML, Die Kinetik der Invertinwirkung, Biochem. Zeitschrifft, 1913, 49, 333-369):
I=(Imax * C^n) / (IC^n +C^n)
C=inhibitor concentration

[1] = system: thromboxane receptor (increase in tracheal pressure caused by U46619); assay: IC50 on tracheal pressure in guinea pigs (U46619-induced bronchoconstriction); type: in vivo, guinea pig; conditions: anesthetized guinea pigs, antagonist injected 5 minutes before U46619 (2 μg/kg i.v.); for ED50: Cavia porcellus, iv, 5 min, read-out: IC50, dose of antagonist that inhibits by 50% the increase in tracheal pressure caused by U46619
From the text: IC50 on tracheal pressure in guinea pigs
Male albino guinea pigs (350-400 g) subjected to an 18-hour water diet are anesthetized with ethyl carbamate (1.25 g/kg i.p.). A catheter is introduced into the carotid artery in order to measure the arterial blood pressure by means of a pressure cell. A second catheter is introduced into the jugular vein and is used to inject the pharmacological substances. The trachea is cannulated and the guinea pig is placed in assisted respiration by means of a respirator. The animal's temperature is maintained at 37° C. using a thermostated blanket. A needle pushed into the tracheal cannula is connected to a pressure cell and enables the tracheal pressure to be recorded.
The guinea pigs are pretreated with d-tubocurarine (1 mg/kg i.v.) and with indomethacin (10 mg/kg i.v.). Injected at a dose of 2 μg/kg i.v., U46619 produces a bronchoconstriction which leads to an increase in tracheal pressure and induces an increase in arterial blood pressure. The responses to U46619 are reversible and reproducible if the injections are carried out every 10 minutes.
The thromboxane receptor antagonists are injected 5 minutes before the injections of U46619. The dose of antagonist that inhibits by 50% the increase in tracheal pressure caused by U46619 is determined (IC50).

[2] = system: platelet aggregation response induced by U46619 (TXA2 receptor agonist); assay: Platelet aggregation: inhibition of U46619-induced aggregation of rabbit platelet-rich plasma; type: cell-based; conditions: Oryctolagus cuniculus, rabbit PRP, 37° C., antagonist 3 min before U46619 (1.2 μM), read-out: IC50, concentration inducing 50% inhibition of the aggregation response induced by U46619
Description: Rabbits (2-3 kg) are anesthetized with pentobarbital sodium (30 mg/kg i.v.). After cannulation of the left carotid artery, blood is withdrawn onto sodium citrate (0.109M) (1 vol. of citrate per 9 vol. of blood).
Platelet-rich plasma (PRP) is obtained by centrifugation (20° C.) at 250 g for 20 minutes, and platelet- poor plasma (PPP) by centrifugation at 1000 g (10 min). The number of platelets (PL) in the PRP is adjusted to 300-350,000 PL/mm^3 by dilution with autologous PPP. The PRP is stored at the temperature of the room until the time of the test, and is used within 4 hours following withdrawal.
Platelet aggregation is carried out at 37° C. in siliconed glass tubes using an aggregometer. The PRP and PL are stirred at 1000 rpm (revolutions per minute). In order to study the activity of thromboxane antagonists, the PRP is incubated for 1 min at 37° C., and the antagonist is then added for a period of 3 min before addition of the agonist U46619 (1.2 μM). The final volume in the cell is then 250 μl. The intensity of platelet aggregation is established by taking the maximum amplitude of the aggregation plots and is expressed as a percentage light transmission (% T). The activity of the antagonists is expressed as IC50, that is to say the concentration of the substance which induces a 50% inhibition of the aggregation response induced by U46619.

| Compound | Kb (guinea pig trachea) | IC50 (thromboxane synthase) | IC50 [2] | IC50, dose of antagonist that inhibits by 50% the increase in tracheal pressure caused by U46619 [1] | ED50 [1] |
| --- | --- | --- | --- | --- | --- |
| O=C(O)CC/C=C\C[C@@H]1CCN(S(=O)(=O)c2ccc(F)cc2)[C@@H]1c1cccnc1 (relative stereo) [Example 2, (4Z)-6-[(2α,3α)-1-(4-Fluorophenylsulfonyl)-2-(3-pyridyl)-3-pyrrolidinyl]-4-hexenoic acid sodium salt] |  | 200 µM |  |  |  |
| O=C(O)CCCCC[C@@H]1CCN(S(=O)(=O)c2ccc(F)cc2)[C@@H]1c1cccnc1 (relative stereo) [Example 20, 6-[(2α,3α)-1-(4-Fluorophenylsulfonyl)-2-(3-pyridyl)-3-pyrrolidinyl) hexanoic acid sodium salt] |  | 60 µM |  |  |  |
| O=C(O)CC/C=C\C[C@@H]1CCN(Cc2cccnc2)[C@@H]1c1ccccc1 (relative stereo) [Example 21, (4Z)-6-{(2α,3α)-1-[(3-Pyridyl)methyl]-2-phenyl-3-pyrrolidinyl}-4-hexenoic acid sodium salt] | 0.00182 µM | 8.5 µM |  |  | 0.17 mg/kg |
| O=C([O-])CC/C=C\C[C@@H]1CCN(S(=O)(=O)c2ccc(F)cc2)[C@H]1c1ccccc1.[Na+] [Example 4, (4Z)-6-[(2α,3α)-1-(4-Fluorophenylsulfonyl)-2-phenyl-3-pyrrolidinyl]-4-hexenoic acid sodium salt] |  |  |  | 0.7 mg/kg |  |

Further lines, with some results ahead:

| Kb (guinea pig trachea) | IC50 (thromboxane synthase) | IC50 [2] | IC50, dose of antagonist that inhibits by 50% the increase in tracheal pressure caused by U46619 [1] | Compound | ED50 [1] |
| --- | --- | --- | --- | --- | --- |
| 0.0631 µM |  |  |  | COc1cccc([C@@H]2[C@H](C/C=C\CCC(=O)O)CCN2S(=O)(=O)c2ccc(F)cc2)c1 (relative stereo) [Example 1, (4Z)-6-[(2α,3α)-1-(4-Fluorophenylsulfonyl)-2-(3-methoxyphenyl)-3-pyrrolidinyl]-4-hexenoic acid sodium salt] |  |
| 0.01 µM |  | 20 µM |  | O=C(O)CC/C=C\C[C@@H]1CCN(S(=O)(=O)c2ccc(F)cc2)[C@@H]1c1cccc(O)c1 (relative stereo) [Example 14, (4Z)-6-[(2α,3α)-1-(4-Fluorophenylsulfonyl)-2-(3-hydroxyphenyl)-3-pyrrolidinyl]-4-hexenoic acid sodium salt] | 0.07 mg/kg |
| 0.0398 µM |  | 20 µM |  | O=C(O)CCC/C=C\C[C@@H]1CCN(S(=O)(=O)c2ccc(F)cc2)[C@@H]1c1cccc(O)c1 (relative stereo) [Example 15, (5Z)-7-[(2α,3α)-1-(4-Fluorophenylsulfonyl)-2-(3-hydroxyphenyl)-3-pyrrolidinyl]-5-heptenoic acid sodium salt] | 0.16 mg/kg |
| 7.08 µM |  |  |  | O=C(O)CCCCC[C@@H]1CCN(Cc2cccnc2)[C@@H]1c1ccccc1 (relative stereo) [Example 22, 6-{(2α,3α)-1-[(3-Pyridyl)methyl]-2-phenyl-3-pyrrolidinyl}hexanoic acid sodium salt] |  |
| 0.0309 µM |  |  |  | O=C(O)CC/C=C\C[C@@H]1CCN(Cc2cccnc2)[C@@H]1c1cccc(O)c1 (relative stereo) [Example 26, (4Z)-6-{(2α,3α)-1-[(3-Pyridyl)methyl]-2-(3-hydroxyphenyl) -3-pyrrolidinyl}-4-hexenoic acid sodium salt] | 0.03 mg/kg |
